Laboratory results published in publication PMC10353390, “Biological and Structural Analyses of New Potent Allosteric Inhibitors of HIV-1 Integrase” (Antimicrobial Agents and Chemotherapy, 2023).
Read-outs that look alike come from different tables or passages of the source.

Key:
[1] = parameters: method as in ref 47 = [47]; 47 Mitchell M , Balakrishnan M , Brizgys G , Cai R , Lansdon E , Mulato A , Osier M , Wang J , Yu H , Sakowicz R . 2017 . Novel non-catalytic site integrase inhibitor with improved resistance profile.; details: precluded further clinical investigation; cited from earlier work
[2] = biological target: HIV-1 IN-LEDGF/p75 interaction (Human immunodeficiency virus type 1 group M subtype B, UniProt P12497); assay: biochemical
[3] = tested on: lab-adapted and clinical HIV-1 isolates; assay: Infection assays in primary T CD4+ lymphocytes; format: cell-based; details: Human immunodeficiency virus 1, Lymphocyte
[4] = tested on: NL4-3 HIV-1 with INLAI-selected IN single point mutations; format: cell-based
HIV-1 IN = biological target: T1, HIV-1 IN (Human immunodeficiency virus type 1 group M subtype B, UniProt P12497); assay: HTRF IN multimerization assay; format: biochemical; details: mean ± SD
T1 construct: made in house
Excerpt: A key property of INLAIs is the ability to promote HIV-1 IN homo-multimerization ([39][–][42]). […] The maximal signal (plateau) in our IN aggregation assay corresponds to the highest HTRF signal increase under saturating INLAI concentration, relative to baseline level. Thus, MUT916, MUT884, MUT871, and MUT872 increased HIV-1 IN aggregation 3.7 to 4.4-fold, while BDM-2, BI-224436, and S-I-82 did so 5 to 6-fold (Table 1).

[5] = Cytotoxicity assay in MT4 cells; format: cell-based; details: human, MT4 cells (proliferating human T-cell line), CellTiter-Glo
Excerpt: Growth inhibition was monitored in a proliferating human T-cell line (MT4) with different concentrations of compounds, using the CellTiter-Glo luminescent reagent (Promega), as previously described ([12]).

HXB2 HIV-1 strain = assay: Multiple-round infection assay in MT4 cells, HXB2; format: cell-based; details: Human immunodeficiency virus 1, HXB2; multiple-round infection, MT4 cells; mean ± SD, n > 5; read-out: EC50 HXB2
Procedure, shortened: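 MT4 cells at 10^6/mL were infected with HIV-1 at MOI 0.001 for 2 h in the presence of compound dilutions. Cell viability, measured by CellTiter-Glo luminescence, served as the read-out of protection in this multiple-round infection.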

[6] = tested on: recombinant NL4-3 viruses with polymorphisms at IN positions 124 and 125; assay: Multiple-round infection of MT4 cells with recombinant NL4-3 viruses polymorphic at IN positions 124 and 125; format: cell-based, HIV-1
Procedure, shortened: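 MT4 cells (10^6/mL) infected with NL4-3 carrying IN 124/125 polymorphisms (15 combinations) at MOI 0.001 for 2 h with compound present. Viability read by CellTiter-Glo luminescence; EC50 expressed as fold change versus wild-type NL4-3 (Thr124/Thr125).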

[7] = tested on: HIV-1 strains resistant to INSTIs, NRTIs, NNRTIs or PIs; format: cell-based; details: PI-resistant virus
Procedure, shortened: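 NL4-3-based recombinant mutants and drug-resistant clinical isolates; exponentially growing MT4 cells (10^6/mL) infected at MOI 0.001 for 2 h with compound at varying concentrations. Protection quantified as cell viability by CellTiter-Glo luminescence.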

NL4-3 HIV-1 strain = assay: Multiple-round infection assay in MT4 cells, NL4-3; format: cell-based; details: MT4 cells
[8] = tested on: VSV-G-pseudotyped NL4-3Δenv-luc; assay: microbe, parasite or virus in culture; format: cell-based, HIV-1; details: Human immunodeficiency virus 1, NL43, MT4, read-out: EC50 in single-round infection
[9] = tested on: primary HIV-1 isolates with polymorphisms at IN positions 124 and 125; assay: Multiple-round infection of MT4 cells with primary HIV-1 isolates polymorphic at IN positions 124 and 125; format: cell-based; details: primary isolate
Procedure, shortened: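 Exponentially growing MT4 cells at 10^6/mL infected for 2 h at MOI 0.001 in the presence of varying compound concentrations. Cell viability quantified by CellTiter-Glo luminescence.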

[10] = biological target: CCD of HIV-1 IN and IBD of LEDGF/p75 (Human immunodeficiency virus type 1 group M subtype B, UniProt P12497); assay: biochemical
[11] = parameters: method as in ref 22 = [22]; 22 Meng X , Donazzolo Y , Kim B , Kim K . 2022 . The first-in-human clinical trial of STP0404, a novel potent HIV-1 allosteric integrase inhibitor . Poster PESUB2624th AIDS Conference , Montreal, Cana; details: cited from earlier work

Cc1cc2nc(-c3ccc4c(c3)c(C3CCN(C5COC5)CC3)nn4C)sc2c(-c2ccc(Cl)cc2)c1[C@H](OC(C)(C)C)C(=O)O [GS-9822]
toxicity [1]: renal and urinary bladder toxicity

Cc1cc(NS(=O)(=O)CC2CCCCC2)c(C)c(C(OC(C)(C)C)C(=O)O)c1-c1ccc2c(c1)CCCO2 (stereo not drawn) [S-I-82, reference compound]
IC50 [2]: 820 ± 380 nM
EC50 ([3]; read-out: EC50 33913N (B)): 4.4 ± 1.9 nM
EC50 ([3]; read-out: EC50 HXB2 (B)): 5.2 ± 3.9 nM
EC50 ([3]; read-out: EC50 KER2008 (A)): 11 ± 2 nM
EC50 ([3]; read-out: EC50 NL4-3 (B)): 9.9 ± 1.1 nM
EC50 ([3]; read-out: EC50 NP1525 (CRF01_AE)): 10 ± 4 nM
EC50 ([3]; read-out: EC50 NP1538 (B)): 8.6 ± 0.5 nM
EC50 fold change compared to wild type NL4-3, A128T [4]: 4
EC50 fold change compared to wild type NL4-3, H171Q [4]: 2
EC50 fold change compared to wild type NL4-3, N222K [4]: 1
EC50 fold change compared to wild type NL4-3, T174I [4]: 15
EC50 fold change compared to wild type NL4-3, Y99H [4]: 2
AC50 (HIV-1 IN; concentration for 50% maximum activation of multimerization): 47 ± 31 nM
IN multimerization Plateau (HIV-1 IN; maximum multimerization reached versus baseline): 500 ± 43%
CC50 [5]: 28000 ± 3000 nM
EC50 (HXB2 HIV-1 strain): 4.1 ± 0.7 nM
Fold change in EC50 relative to parental NL4-3, AA ([6]; recombinant NL4-3, IN 124/125 AA): 1
Fold change in EC50 relative to parental NL4-3, AM ([6]; recombinant NL4-3, IN 124/125 AM): 1
Fold change in EC50 relative to parental NL4-3, AT ([6]; recombinant NL4-3, IN 124/125 AT): 1
Fold change in EC50 relative to parental NL4-3, AV ([6]; recombinant NL4-3, IN 124/125 AV): 2
Fold change in EC50 relative to parental NL4-3, GA ([6]; recombinant NL4-3, IN 124/125 GA): 3
Fold change in EC50 relative to parental NL4-3, GT ([6]; recombinant NL4-3, IN 124/125 GT): 3
Fold change in EC50 relative to parental NL4-3, NA ([6]; recombinant NL4-3, IN 124/125 NA): 10
Fold change in EC50 relative to parental NL4-3, NT ([6]; recombinant NL4-3, IN 124/125 NT): 5
Fold change in EC50 relative to parental NL4-3, NV ([6]; recombinant NL4-3, IN 124/125 NV): 5
Fold change in EC50 relative to parental NL4-3, SA ([6]; recombinant NL4-3, IN 124/125 SA): 4
Fold change in EC50 relative to parental NL4-3, ST ([6]; recombinant NL4-3, IN 124/125 ST): 2
Fold change in EC50 relative to parental NL4-3, TA ([6]; recombinant NL4-3, IN 124/125 TA): 2
Fold change in EC50 relative to parental NL4-3, TM ([6]; recombinant NL4-3, IN 124/125 TM): 1
Fold change in EC50 relative to parental NL4-3, TV ([6]; recombinant NL4-3, IN 124/125 TV): 1
Fold change in EC50 relative to NL4-3, ARP-4595 [7]: 1
Fold change in EC50 relative to NL4-3, ARP-4596 [7]: 0.5
Fold change in EC50 relative to NL4-3, ARP-11801 [7]: 1
Fold change in EC50 relative to NL4-3, ARP-11803 [7]: 1
Fold change in EC50 relative to NL4-3, ARP-11807 [7]: 1
Fold change in EC50 relative to NL4-3, ARP-11808 [7]: 1
EC90 (NL4-3 HIV-1 strain; Human immunodeficiency virus 1, NL43, multiple-round infection, from dose response curves, read-out: EC90 NL4-3): 21 ± 7.2 nM
EC50 (NL4-3 HIV-1 strain; Human immunodeficiency virus 1, NL43, multiple-round infection, mean ± SD, n > 5, read-out: EC50 NL4-3): 12 ± 3 nM
Selectivity index CC50/EC50 NL4-3 (NL4-3 HIV-1 strain): 2,333
EC50 [8]: 9200 ± 1100 nM
Fold change in EC50 relative to parental NL4-3, CAM2BBY (CRF02) ([9]; IN 124/125 AA): 2
Fold change in EC50 relative to parental NL4-3, E0836M4 (D) ([9]; IN 124/125 AA): 1
Fold change in EC50 relative to parental NL4-3, KER2008 (A) ([9]; IN 124/125 AA): 1
Fold change in EC50 relative to parental NL4-3, NP1525 (CRF01) ([9]; IN 124/125 AA): 2
Fold change in EC50 relative to parental NL4-3, NP1695 (CRF02) ([9]; IN 124/125 AA): 1
Fold change in EC50 relative to parental NL4-3, TZA125 (C) ([9]; IN 124/125 AA): 1
Fold change in EC50 relative to parental NL4-3, KSM4030 (A) ([9]; IN 124/125 GA): 6
Fold change in EC50 relative to parental NL4-3, vGA (C) ([9]; IN 124/125 GA): 4
Fold change in EC50 relative to parental NL4-3, 99ET14 (C) ([9]; IN 124/125 NA): 210
Fold change in EC50 relative to parental NL4-3, NP1538 (B) ([9]; IN 124/125 NA): 1
Fold change in EC50 relative to parental NL4-3, vNA_1 (B) ([9]; IN 124/125 NA): 23
Fold change in EC50 relative to parental NL4-3, vNA_2 (CRF02) ([9]; IN 124/125 NA): 23
Fold change in EC50 relative to parental NL4-3, vNV (B) ([9]; IN 124/125 NV): 34
Fold change in EC50 relative to parental NL4-3, vSA_1 (B) ([9]; IN 124/125 SA): 12
Fold change in EC50 relative to parental NL4-3, vSA_2 (CRF02) ([9]; IN 124/125 SA): 4
Fold change in EC50 relative to parental NL4-3, vTA_1 (B) ([9]; IN 124/125 TA): 3
Fold change in EC50 relative to parental NL4-3, vTA_2 (CRF02) ([9]; IN 124/125 TA): 3
IC50 [10]: 430 ± 130 nM

Cc1nc2c(c(C)c(C)n2Cc2cnn(C)c2)c(-c2ccc(Cl)cc2)c1[C@H](OC(C)(C)C)C(=O)O [STP0404, Pirmitegravir]
tolerability in clinical phase I study [11]: Well tolerated
